Laboratory results published in patent US9783552B2, “Soluble guanylate cyclase activators” (MERCK SHARP & DOHME CORP., priority 2013, dated 2017).

Target: T1, sGC α1/β1 heterodimer (Homo sapiens, UniProt Q02108+Q02153)
T1 construct: expressed in transfected cells
T1 sequence (Q02108 1-690): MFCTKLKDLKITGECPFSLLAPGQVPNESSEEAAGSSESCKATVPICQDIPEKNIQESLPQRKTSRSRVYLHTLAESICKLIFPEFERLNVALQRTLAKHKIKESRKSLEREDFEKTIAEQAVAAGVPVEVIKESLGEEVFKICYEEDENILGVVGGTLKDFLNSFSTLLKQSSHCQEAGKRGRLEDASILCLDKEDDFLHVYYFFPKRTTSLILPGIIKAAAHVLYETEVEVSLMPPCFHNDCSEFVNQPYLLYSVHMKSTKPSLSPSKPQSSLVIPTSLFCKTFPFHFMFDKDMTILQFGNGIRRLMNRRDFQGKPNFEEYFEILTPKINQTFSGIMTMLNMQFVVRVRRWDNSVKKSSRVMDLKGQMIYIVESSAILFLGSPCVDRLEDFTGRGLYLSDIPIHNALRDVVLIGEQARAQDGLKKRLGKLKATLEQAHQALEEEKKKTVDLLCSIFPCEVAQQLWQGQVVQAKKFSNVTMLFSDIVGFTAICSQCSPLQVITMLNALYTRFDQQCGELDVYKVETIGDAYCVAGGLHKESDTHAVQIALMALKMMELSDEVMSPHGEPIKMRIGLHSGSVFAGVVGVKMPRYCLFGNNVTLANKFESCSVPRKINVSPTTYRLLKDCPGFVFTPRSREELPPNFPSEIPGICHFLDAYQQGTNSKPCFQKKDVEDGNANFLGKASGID
T1 sequence (Q02153 1-619): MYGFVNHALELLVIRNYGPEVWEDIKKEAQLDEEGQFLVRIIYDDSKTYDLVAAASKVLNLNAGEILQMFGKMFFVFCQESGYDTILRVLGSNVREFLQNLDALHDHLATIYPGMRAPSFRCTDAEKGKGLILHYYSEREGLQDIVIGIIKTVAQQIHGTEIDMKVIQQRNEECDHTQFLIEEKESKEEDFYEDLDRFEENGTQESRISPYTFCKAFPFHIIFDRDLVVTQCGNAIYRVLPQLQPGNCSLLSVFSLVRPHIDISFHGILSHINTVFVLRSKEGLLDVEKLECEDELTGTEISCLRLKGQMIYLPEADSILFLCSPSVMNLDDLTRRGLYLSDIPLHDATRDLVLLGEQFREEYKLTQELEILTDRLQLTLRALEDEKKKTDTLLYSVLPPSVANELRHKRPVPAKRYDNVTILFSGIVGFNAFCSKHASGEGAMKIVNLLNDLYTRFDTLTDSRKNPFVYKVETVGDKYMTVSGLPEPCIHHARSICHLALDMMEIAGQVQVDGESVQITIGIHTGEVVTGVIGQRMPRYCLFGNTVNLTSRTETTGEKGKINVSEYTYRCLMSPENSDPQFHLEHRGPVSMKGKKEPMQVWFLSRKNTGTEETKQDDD
Experiment: Cell-Based sGC Functional Assay (CASA Assay)
Settings: CHO-K1/sGC cells; for EC50: intracellular cGMP by HTRF, 1 hr at 37° C., IP from 4P fit, presence or absence of 1 μM DETA-NO not given; for Emax: cGMP as percentage of maximum cGMP production of Compound A (=100% activation), read-out: % ACT (percent activation)
In short: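 cGMP accumulation was quantified by HTRF in stable human sGC α1/β1 CHO-K1 cells after 1 hr at 37 °C with compound, 0.5 mM IBMX and 2.5% DMSO. Runs were done in the presence and absence of 1 μM of the NO donor DETA-NO. Activation was normalised to the reference heme-dependent activator maximum (100%), and a 4P fit gave IP and maximum fold induction.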

| EC50 [nM] | Emax [%] | Structure (SMILES) |
| --- | --- | --- |
| 12 | 83 | Cn1ccc2c(-c3nc(N)c4c(n3)NC(=O)C4(C)c3ccccc3)nc(Cc3cccc(F)c3F)nc21 (single isomer, unassigned) [Example 64, 4-Amino-2′-(2,3-difluorobenzyl)-5,7′-dimethyl-5-phenyl-5H,7′H-[2,4′-bipyrrolo[2,3-d]pyrimidin]-6(7H)-one] |
| 43 | 104 | [2H]C([2H])([2H])n1ncc2c(-c3nc(N)c4c(n3)NC(=O)C4(C)C(=O)NCC)nc(CCC(F)(F)C(F)(F)F)nc21 (single isomer, unassigned) [Example 39, 4-Amino-N-ethyl-5-methyl-2-(6-(3,3,4,4,4-pentafluorobutyl)-1-trideuteriomethyl-1H-pyrazolo[3,4-d]pyrimidin-4-yl)-6-oxo-6,7-dihydro-5H-pyrrolo[2,3-d]pyrimidine-5-carboxamide] |
| 424 | 66 | [2H]C([2H])([2H])n1nnc2c(-c3nc(N)c4c(n3)NC(=O)C4(C)c3ccc(F)c(OC)c3)nc(CCC(F)(F)C(F)(F)F)nc21 (single isomer, unassigned) [Example 72, 4-Amino-5-(4-fluoro-3-methoxyphenyl)-5-methyl-2-(5-(3,3,4,4,4-pentafluorobutyl-3-trideuteriomethyl)-3H-[1,2,3]triazolo[4,5-d]pyrimidin-7-yl)-5H-pyrrolo[2,3-d]pyrimidin-6(7H)-one] |
| 47 | 106 | [2H]C([2H])([2H])n1ccc2c(-c3nc(N)c4c(n3)NC(=O)C4(C)c3ccccc3)nc(CCC(F)(F)C(F)(F)F)nc21 (single isomer, unassigned) [Example 60, 4-Amino-5-methyl-2′-(3,3,4,4,4-pentafluorobutyl)-5-phenyl-7′-trideuteriomethyl-5H,7′H-[2,4′-bipyrrolo[2,3-d]pyrimidin]-6(7H)-one] |
| 156 | 69 | Cn1nnc2c(-c3nc(N)c4c(n3)NC(=O)C4(C)c3ccc(F)cc3)nc(Cc3cccc(F)c3F)nc21 (single isomer, unassigned) [Example 66] |
| 869 | 104 | Cn1ncc2c(-c3nc(N)c4c(n3)NC(=O)C4(C)NC(=O)C3CC3)nc(CCC(F)(F)C(F)(F)F)nc21 (stereo not shown) [Example 53, N-(4-Amino-5-methyl-2-(1-methyl-6-(3,3,4,4,4-pentafluorobutyl)-1H-pyrazolo[3,4-d]pyrimidin-4-yl)-6-oxo-6,7-dihydro-5H-pyrrolo[2,3-d]pyrimidin-5-yl)cyclopropanecarboxamide] |
| 53 | 119 | CCn1ncc2c(-c3nc(N)c4c(n3)NC(=O)C4(C)c3ccc(F)cc3)nc(CCC(F)(F)C(F)(F)F)nc21 (single isomer, unassigned) [Example 19, 4-Amino-2-(1-ethyl-6-(3,3,4,4,4-pentafluorobutyl)-1H-pyrazolo[3,4-d]pyrimidin-4-yl)-5-(4-fluorophenyl)-5-methyl-5H-pyrrolo[2,3-d]pyrimidin-6(7H)-one] |
| 143 | 123 | CCn1ncc2c(-c3nc(N)c4c(n3)NC(=O)C4(C)c3ccc(F)cc3)nc(CCCC(F)(F)F)nc21 (single isomer, unassigned) [Example 20, 4-Amino-2-(1-ethyl-6-(4,4,4-trifluorobutyl)-1H-pyrazolo[3,4-d]pyrimidin-4-yl)-5-(4-fluorophenyl)-5-methyl-5H-pyrrolo[2,3-d]pyrimidin-6(7H)-one] |
| 105 | 120 | C#CC1(C2CC2)C(=O)Nc2nc(-c3nc(CCC(F)(F)C(F)(F)F)nc4c3cnn4C)nc(N)c21 (single isomer, unassigned) [Example 24, 4-Amino-5-cyclopropyl-5-ethynyl-2-(1-methyl-6-(3,3,4,4,4-pentafluorobutyl)-1H-pyrazolo[3,4-d]pyrimidin-4-yl)-5H-pyrrolo[2,3-d]pyrimidin-6(7H)-one] |
| 830 | 93 | CCOC(=O)C1(C2CC2)C(=O)Nc2nc(-c3nc(CCC(F)(F)C(F)(F)F)nc4c3cnn4C)nc(N)c21 (single isomer, unassigned) [Example 26, Ethyl 4-amino-5-cyclopropyl-2-(1-methyl-6-(3,3,4,4,4-pentafluorobutyl)-1H-pyrazolo[3,4-d]pyrimidin-4-yl)-6-oxo-6,7-dihydro-5H-pyrrolo[2,3-d]pyrimidine-5-carboxylate] |
| 49 | 80 | [2H]C([2H])([2H])n1ncc2c(-c3nc(N)c4c(n3)NC(=O)C4(CCCC)C3CC3)nc(CCC(F)(F)C(F)(F)F)nc21 (single isomer, unassigned) [Example 25, 4-Amino-5-butyl-5-cyclopropyl-2-(6-(3,3,4,4,4-pentafluorobutyl)-1-trideuteriomethyl-1H-pyrazolo[3,4-d]pyrimidin-4-yl)-5H-pyrrolo[2,3-d]pyrimidin-6(7H)-one] |
| 614 | 92 | Cn1ncc2c(-c3nc(N)c4c(n3)NC(=O)C4(C)NC(=O)CC3CC3)nc(CCC(F)(F)C(F)(F)F)nc21 (stereo not shown) [Example 52, N-(4-Amino-5-methyl-2-(1-methyl-6-(3,3,4,4,4-pentafluorobutyl)-1H-pyrazolo[3,4-d]pyrimidin-4-yl)-6-oxo-6,7-dihydro-5H-pyrrolo[2,3-d]pyrimidin-5-yl)-2-cyclopropylacetamide] |
| 87 | 118 | Cn1ncc2c(-c3nc(N)c4c(n3)NC(=O)C4(C)NCC3CC3)nc(CCC(F)(F)C(F)(F)F)nc21 (stereo not shown) [Example 54, 4-Amino-5-((cyclopropylmethyl)amino)-5-methyl-2-(1-methyl-6-(3,3,4,4,4-pentafluorobutyl)-1H-pyrazolo[3,4-d]pyrimidin-4-yl)-5H-pyrrolo[2,3-d]pyrimidin-6(7H)-one] |
| 746 | 109 | Cn1ncc2c(-c3nc(N)c4c(n3)NC(=O)C4(C)NC(=O)c3ccccn3)nc(CCC(F)(F)C(F)(F)F)nc21 (stereo not shown) [Example 51, N-(4-Amino-5-methyl-2-(1-methyl-6-(3,3,4,4,4-pentafluorobutyl)-1H-pyrazolo[3,4-d]pyrimidin-4-yl)-6-oxo-6,7-dihydro-5H-pyrrolo[2,3-d]pyrimidin-5-yl)picolinamide] |
| 30 | 95 | [2H]C([2H])([2H])n1ncc2c(-c3nc(N)c4c(n3)NC(=O)C4(C)c3ccc(C#N)cc3)nc(CCC(F)(F)C(F)(F)F)nc21 (single isomer, unassigned) [Example 47, 4-(4-Amino-5-methyl-2-(6-(3,3,4,4,4-pentafluorobutyl)-1-trideuteriomethyl-1H-pyrazolo[3,4-d]pyrimidin-4-yl)-6-oxo-6,7-dihydro-5H-pyrrolo[2,3-d]pyrimidin-5-yl)benzonitrile] |
| 632 | 70 | Cn1nc(Cl)c2c(-c3nc(N)c4c(n3)NC(=O)C4(C)c3ccc(F)cc3)nc(CCC(F)(F)C(F)(F)F)nc21 (single isomer, unassigned) [Example 58, 4-Amino-2-(3-chloro-1-methyl-6-(3,3,4,4,4-pentafluorobutyl)-1H-pyrazolo[3,4-d]pyrimidin-4-yl)-5-(4-fluorophenyl)-5-methyl-5H-pyrrolo[2,3-d]pyrimidin-6(7H)-one] |
| 113 | 139 | [2H]C([2H])([2H])OC1(C)C(=O)Nc2nc(-c3nc(CCC(F)(F)C(F)(F)F)nc4c3cnn4C)nc(N)c21 (stereo not shown) [Example 57, 4-Amino-5-methyl-5-trideuteriomethoxy-2-(1-methyl-6-(3,3,4,4,4-pentafluorobutyl)-1H-pyrazolo[3,4-d]pyrimidin-4-yl)-5H-pyrrolo[2,3-d]pyrimidin-6(7H)-one] |
